Results reported in patent publication US7867522B2, “Method of wound/burn healing using copper-zinc compositions” (JR Chem, LLC, priority 2006, dated 2011).

What was measured:
Assay type in all cases: in vivo, human
[1] = system: third degree burns on their left wrist and stomach; test: topical treatment of third degree burns; settings: person; liquid composition applied four times a day for 1 month
Source text: A person truck accident victim is suffering from third degree burns on their left wrist and stomach. A liquid composition suitable for treatment of skin containing an effective amount of copper-zinc malonate active ingredient is applied to the third degree burn four times a day for 1 month.

[2] = system: 6 inch laceration to their right forearm; test: topical treatment of a forearm laceration; settings: person; emulsion composition applied three times a day for 1 week
Source text: A person is suffering from 6 inch laceration to their right forearm. An emulsion composition suitable for treatment of skin containing an effective amount of copper-zinc malonate active ingredient is applied to their laceration three times a day for 1 week.

open soars on their feet = test: topical treatment of open sores on the feet; settings: person, composition applied to the wound twice a day for 10 days
Source text: A person is suffering from open soars on their feet. A composition containing copper-zinc malonate is applied to the wound twice a day for 10 days. Healing time is reduced.

[3] = system: bee sting characterized by pain and swelling; test: topical treatment of a bee sting; settings: child; liquid composition containing 0.05% active ingredient, four times a day for 2 days
Source text: A child is suffering from a bee sting characterized by pain and swelling. A liquid composition suitable for treatment of skin containing 0.05% copper-zinc malonate active ingredient is applied to the sting four times a day for 2 days.

pressure ulcer = test: topical treatment of pressure ulcers in a diabetic patient
Source text: A diabetic is suffering from a stage I pressure ulcer characterized by non-blanchable erythema on intact skin. A gel composition suitable for treatment of skin containing an effective amount of copper-zinc malonate active ingredient is routinely applied to the stage I pressure ulcer twice daily.
A diabetic is suffering from a stage II pressure ulcer characterized by partial skin loss involving the epidermis, dermis, or both. The lesion is superficial and presents clinically as a shallow center. A liquid composition suitable for treatment of skin containing an effective amount of copper-zinc malonate active ingredient is applied to the shallow center four times a day for 2 months.
A diabetic is suffering from a stage III pressure ulcer characterized by full thickness skin loss involving damage or necrosis of subcutaneous tissue that extends down to, but not through, underlying fascia. The sore presents clinically as a deep crater. A liquid composition suitable for treatment of skin containing an effective amount of one or more copper-zinc malonate active ingredients is applied to the crater four times a day for 1 month.
A diabetic is suffering from a stage IV pressure ulcer characterized by full thickness skin loss with extensive destruction, and tissue necrosis. A liquid composition suitable for treatment of skin containing an effective amount of copper-zinc malonate active ingredient is applied to the dying tissue four times a day for 1 month.

[4] = liquid composition applied four times a day for 1 month

Substance: copper-zinc malonate
- burnt wrist and stomach, healing time [1]: improve, and healing time is reduced
- healing and time necessary for the wound to close [2]: promotes healing and decreases the time necessary for the wound to close
- healing time (open soars on their feet): reduced
- bee sting [3]: reduced or eliminated
- stage I pressure ulcer (pressure ulcer; gel composition applied twice daily): reduced or eliminated
- stage III pressure ulcer (pressure ulcer; [4]): reduced or eliminated
- stage IV pressure ulcer (pressure ulcer; [4]): reduced or eliminated
- stage II pressure ulcer (pressure ulcer; liquid composition applied four times a day for 2 months): reduced or eliminated
